Consider one compound from the NIST ThermoML archive (doi:10.1016/j.jct.2014.05.001).

For the data set the following is noted: Ring tensiometer.

± gives the expanded uncertainty stated by the source.

By surface tension liquid-gas is commonly meant the work needed to enlarge the surface of a liquid by unit area.

Turning to `O` [water], the surface tension liquid-gas (298.15 K) is on record as 72 ± 0.9 mN/m, the surface tension liquid-gas (303.15 K) is 71.1 ± 0.9 mN/m, the surface tension liquid-gas (308.15 K) turned out to be 70.3 ± 0.9 mN/m and the surface tension liquid-gas (313.15 K) was determined as 69.4 ± 0.9 mN/m.
